We go through 21 compounds from ChEMBL document CHEMBL5233235, “Chalcone hybrids as privileged scaffolds in antimalarial drug discovery: A key review” (Eur J Med Chem, 2020).

Values after ≈ are worked out from the molar mass of the structure shown.

Series [1] deals with Plasmodium falciparum. Put plainly: Antimalarial activity against chloroquine-sensitive Plasmodium falciparum 3D7 by candle jar method. The series is classed as functional, organism-based.
Series [2] concerns Plasmodium falciparum. Nature of the series: Antimalarial activity against Plasmodium falciparum. The series is classed as functional, organism-based.
Series [3] relates to Plasmodium falciparum. Nature of the series: Antimalarial activity against chloroquine-resistant Plasmodium falciparum W2 incubated for 48 hrs by microscopic analysis. In kind it is functional, organism-based. Conditions: W2, 48 h.
The subject of a further series is Plasmodium. Put plainly: Antimalarial activity against Plasmodium falciparum K1 by [3H]-hypoxanthine uptake assay. In kind it is functional, organism-based.
Series [4] deals with Plasmodium falciparum. Nature of the series: Antiplasmodial activity against Plasmodium falciparum 3D7 incubated for 30 hrs followed by addition of [3H]-hypoxanthine and measured after 18 hrs by liquid scintillation counting method. In kind it is functional, organism-based.
A short description of series [5]: Cytotoxicity against human HepG2 cells. In kind it is toxicity, cell-based.
Series [6] relates to Plasmodium falciparum. Nature of the series: Antiparasitic activity against Plasmodium falciparum W2 incubated for 48 hrs by flow cytometry based analysis. The series is classed as functional, organism-based. To be noted: W2, 48 h.
The test system of series [7] is Plasmodium falciparum. Nature of the series: Antimalarial activity against Plasmodium falciparum 3D7. In kind it is functional, organism-based.
Series [8] deals with Plasmodium falciparum. Put plainly: Antimalarial activity against chloroquine-sensitive Plasmodium falciparum 3D7. The series is classed as functional, organism-based.
Series [9] concerns Plasmodium falciparum. Put plainly: Antimalarial activity against Plasmodium falciparum ATCC 30932 incubated for […]. The series is classed as functional, organism-based.
A short description of series [10]: Cytotoxicity against mouse FM3A cells incubated for 48 hrs. In kind it is toxicity, cell-based.
Series [11] is described as follows: Selectivity index, ratio of EC50 for cytotoxicity against mouse FM3A cells to EC50 for antimalarial activity against Plasmodium falciparum ATCC 30932. Conditions: read-out: Ratio EC50. In kind it is toxicity, cell-based.
[12] abbreviates: Plasmodium falciparum, 3D7, read-out: IC50.

`COc1ccc(/C=C/C(=O)c2ccc(-n3ncc4ccccc43)cc2)c(OC)c1` gave an IC50 with Plasmodium falciparum [1] of 1.1 µg/mL (≈ 2.86 µM). Take `COc1cc(/C=C/C(=O)c2c[n+]([O-])c3ccccc3[n+]2[O-])cc(OC)c1OC`: in the series on Plasmodium falciparum [2], the IC50 came to 6200 nM. The compound `O=C(/C=C/c1cccc(S(=O)(=O)N2CCOCC2)c1)c1ccccc1` returned an IC50 in the series with Plasmodium falciparum [3] of 2060 nM. On to `COc1ccc(/C=C/C(=O)c2ccc(OC)cc2OC)c(OC)c1`, for which, in the series on Plasmodium, the IC50 is below 5000 nM.

Regarding `CCO/C(C)=N/Oc1ccc(/C=C/C(=O)c2ccc3ccccc3c2)cc1`, the values for the IC50 (in the series with Plasmodium falciparum [4] (setting [12]); in series [5]) were 12 µg/mL (≈ 33.4 µM) and 54 µg/mL (≈ 150 µM), respectively. In the case of `O=C(/C=C/c1ccc2ccccc2c1)c1c[n+]([O-])c2ccccc2[n+]1[O-]`, the IC50 in the series on Plasmodium falciparum [2] came to 5800 nM.

For the compound `CCO/C(C)=N/Oc1ccc(C(=O)/C=C/c2cc(OC)c(OC)c(OC)c2)cc1`, the values for the IC50 (in the series with Plasmodium falciparum [4] (setting [12]); in series [5]) were 12 µg/mL (≈ 30 µM) and 20 µg/mL (≈ 50.1 µM), respectively.

What is called MIC is the least concentration at which growth counts as inhibited. Low values mean a more susceptible organism, high ones a less susceptible organism. Turning to `Cc1cccc(C(=O)/C=C(\I)c2cc3ccccc3nc2Cl)c1O`, 50 µg/mL (≈ 111 µM) was the least that counted as inhibitory against Plasmodium falciparum [2] (MIC).

Compound `C[C@@H]1CC[C@H]2[C@@H](C)C(=O)O[C@@H]3O[C@@]4(C)CC[C@@H]1[C@]32OO4` [ARTEMISININ] had an IC50 in the series on Plasmodium falciparum [4] of 0.021 uM/ml. In the series on Plasmodium falciparum [6], `COc1cc(/C=C/C(=O)c2ccc(NS(=O)(=O)c3cc(Cl)ccc3Cl)cc2)cc(OC)c1OC` returned an IC50 of 480 nM. Compound `O=C(/C=C/c1ccc(F)cc1F)c1ccc(NS(=O)(=O)c2cc(Cl)ccc2Cl)cc1` returned an IC50 in the series on Plasmodium falciparum [6] of 670 nM. The compound `COc1ccc(C(=O)/C=C/c2cnc3ccccc3c2)c(OC)c1` yielded an IC50 in the series with Plasmodium below 5000 nM. On to `CCO/C(C)=N/Oc1ccc(C(=O)/C=C/c2ccc(OCc3ccccc3)cc2)cc1`, for which the IC50 with Plasmodium falciparum [4] (setting [12]) was 12 µg/mL (≈ 28.9 µM). The compound `O=C(/C=C/c1cc2ccccc2nc1Cl)c1cc(Br)cc(Cl)c1O` came in with an MIC in the series with Plasmodium falciparum [2] of 10 µg/mL (≈ 23.6 µM). The same measure, in the same setting: under `COc1ccc2nc(Cl)c(/C=C/C(=O)c3cc(Br)cc(Cl)c3O)cc2c1` stands 10 µg/mL (≈ 22.1 µM). `CCc1ccc(/C=C/C(=O)c2ccc(OC)cc2OC)cc1`: the IC50 in the series on Plasmodium was below 5000 nM. As for `CCO/C(C)=N/Oc1ccc(C(=O)/C=C/c2cc(OC)ccc2OC)cc1`, the IC50 in the series on Plasmodium falciparum [4] (setting [12]) was determined as 6 µg/mL (≈ 16.2 µM). Compound `COc1ccc(C(=O)/C=C/c2ccc(O)c(O)c2)c(O)c1` [CALYTHROPSIN] displayed an IC50 in the series on Plasmodium falciparum [7] of 590 nM. In the case of `O=C(/C=C/c1ccc([N+](=O)[O-])cc1)c1c(O)c2ccccc2oc1=O`, in the series with Plasmodium falciparum [8], the IC50 is below 5 µg/mL.

For the compound `O=C(/C=C/c1c[nH]c2ccccc12)c1ccccc1O`, the IC50 with Plasmodium falciparum [2] worked out at 2100 nM.

Broadly, the EC50 is the concentration needed to bring the measured effect to its halfway point. In the series on Plasmodium falciparum [9], `COc1ccc(C(=O)/C=C/c2ccc(OC)c(OC)c2)c(O)c1` gave an EC50 of 1 µg/mL (≈ 3.18 µM). The compound further came in with an EC50 at 48 h in series [10] above 3.3 µg/mL. Further, the selectivity ratio in series [11] was above 3.3.
